Source: publication PMC7645381, “Development and application of a high-throughput screening assay for identification of small molecule inhibitors of the P. falciparum reticulocyte binding-like homologue 5 protein” (International Journal for Parasitology: Drugs and Drug …, 2020)
Structures can show the parent of a compound that is named as a salt.

Experiments:
Test in all cases: biochemical
[1] = biological target: T1, P. falciparum Rh5 (Rh5 – basigin interaction) (Plasmodium falciparum, UniProt Q8IFM5); design: AlphaScreen of Rh5 - His-tagged basigin interaction with anti-Rh5 mAb beads; inhibition of luminescence signal; settings: primary pilot screen, single point; for % Inhibition Pilot: 20 µM, inhibitor
T1 sequence (Q8IFM5 24-526): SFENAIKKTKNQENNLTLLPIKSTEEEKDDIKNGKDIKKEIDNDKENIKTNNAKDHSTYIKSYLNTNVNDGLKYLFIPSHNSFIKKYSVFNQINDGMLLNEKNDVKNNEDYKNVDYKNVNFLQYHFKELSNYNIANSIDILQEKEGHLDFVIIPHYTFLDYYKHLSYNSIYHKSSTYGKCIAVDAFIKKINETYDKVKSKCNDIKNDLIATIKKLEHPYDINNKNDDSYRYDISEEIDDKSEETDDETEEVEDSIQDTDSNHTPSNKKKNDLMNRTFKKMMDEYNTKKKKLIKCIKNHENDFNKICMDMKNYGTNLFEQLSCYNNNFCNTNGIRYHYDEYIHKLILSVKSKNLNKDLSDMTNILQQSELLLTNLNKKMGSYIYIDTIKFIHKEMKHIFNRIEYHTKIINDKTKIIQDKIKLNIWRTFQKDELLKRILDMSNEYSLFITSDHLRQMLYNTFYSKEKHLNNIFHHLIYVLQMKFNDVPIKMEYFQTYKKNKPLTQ
Description: Using the Combi-multidrop, 5 μL of Rh5 stock solution (200 nM prepared in assay buffer) was added to columns 1–24 of the 384-well assay plate (Greiner 384-well white, low binding plate, #784904, Bioone). The PerkinElmer Janus automated dispensing system was then employed to transfer, via the pin-tool, 2 × 100 nL of the compound stock DMSO solution from the compound master plate to the assay plate. The plate was sealed and incubated for 30 min at room temperature. Using a Combi-multidrop, 5 μL of hexa-histidine tagged basigin stock solution (80 nM prepared in assay buffer) was then added to columns 1–23 and 5 μL assay buffer to column 24 of the 384-well assay plate. The plate was sealed again and incubated for 30 min at room temperature. A solution of AlphaScreen donor and acceptor beads (20 μg/mL prepared in assay buffer) plus anti-Rh5 mAb solution (2 μg/mL prepared in assay buffer) was prepared in assay buffer under subdued lighting. Using the Combi-multidrop, 10 μL of this solution was added to every well of the assay plate under subdued lighting. The plate was sealed with foil (plate max) and incubated at room temperature for 1 h. The assay plate was then analysed on the PerkinElmer Envision 2103 Multilabel Plate Reader (Ex 680, Em 520–620 nm). The optimised Rh5 AlphaScreen assay was then validated for HT screening purposes by conducting a pilot screen using known drug library (from Prestwick, Tocris and LOPAC) and the MMV Malaria Box, comprising 3708 and 400 compounds (Fig. 1), respectively. Historically, PPIs are notoriously difficult to target with small molecules. To enhance the likelihood of identifying an inhibitor of the Rh5 - basigin interaction the primary screen was conducted at a compound concentration of 20 μM. A 20 μM screening concentration is considered high, when compared to the commonly used primary screen concentrations of approximately 1–10 μM. To follow-up on hit compounds from the pilot validation screen, we next wanted to confirm the activity of the primary hits. To do this, a two-phase hit confirmation and counterscreen process was undertaken (Fig. 1). In the first phase, the 231 primary hits from both libraries were evaluated in the Rh5 AlphaScreen assay and counterscreen assay. Both assays were undertaken at 10 μM in duplicate. The counterscreen assay was conducted using AlphaScreen TruHits. […] The 45 secondary hits can be viewed in the top left quadrant of Fig. S8. Of the 45 hits, 13 compounds originated from the Malaria Box and 32 compounds from the known drug library.

[2] = biological target: T1, P. falciparum Rh5 (Rh5 – basigin interaction); design: AlphaScreen of Rh5 - His-tagged basigin interaction with anti-Rh5 mAb beads; inhibition of luminescence signal; settings: confirmation screen, duplicate; for % Inhibition Confirmation: 10 µM, inhibitor
Description: Using the Combi-multidrop, 5 μL of Rh5 stock solution (200 nM prepared in assay buffer) was added to columns 1–24 of the 384-well assay plate (Greiner 384-well white, low binding plate, #784904, Bioone). The PerkinElmer Janus automated dispensing system was then employed to transfer, via the pin-tool, 2 × 100 nL of the compound stock DMSO solution from the compound master plate to the assay plate. The plate was sealed and incubated for 30 min at room temperature. Using a Combi-multidrop, 5 μL of hexa-histidine tagged basigin stock solution (80 nM prepared in assay buffer) was then added to columns 1–23 and 5 μL assay buffer to column 24 of the 384-well assay plate. The plate was sealed again and incubated for 30 min at room temperature. A solution of AlphaScreen donor and acceptor beads (20 μg/mL prepared in assay buffer) plus anti-Rh5 mAb solution (2 μg/mL prepared in assay buffer) was prepared in assay buffer under subdued lighting. Using the Combi-multidrop, 10 μL of this solution was added to every well of the assay plate under subdued lighting. The plate was sealed with foil (plate max) and incubated at room temperature for 1 h. The assay plate was then analysed on the PerkinElmer Envision 2103 Multilabel Plate Reader (Ex 680, Em 520–620 nm). […] Historically, PPIs are notoriously difficult to target with small molecules. To enhance the likelihood of identifying an inhibitor of the Rh5 - basigin interaction the primary screen was conducted at a compound concentration of 20 μM. A 20 μM screening concentration is considered high, when compared to the commonly used primary screen concentrations of approximately 1–10 μM. […] To do this, a two-phase hit confirmation and counterscreen process was undertaken (Fig. 1). […] Both assays were undertaken at 10 μM in duplicate. The counterscreen assay was conducted using AlphaScreen TruHits.

[3] = biological target: T1, P. falciparum Rh5 (Rh5 – basigin interaction); assay type: binding; settings: for Rh5 inhibitory activity in the AlphaScreen assay: highest concentration tested 50 μM

SMILES | inhibition at 20 µM ([1]; Batch Reference=01) | inhibition at 10 µM ([2]; Batch Reference=01) | also measured
O=C1C=CC(=O)c2c1ccc1c2ccc2ccccc21 [WEHI-1216729, Chrysene-1,4-quinone] | 56.6% | 71% | 
CCOC(=O)c1cc(=O)c2cccc(NC(=O)c3ccc(OCc4ccccc4)cc3)c2o1 [Compound 11, Ethyl 8-(4-(benzyloxy)benzamido)-4-oxo-4H-chromene-2-carboxylate] |  |  | IC50 [3]: > 50 µM
CN1CCc2cccc3c2[C@H]1Cc1ccc(O)c(O)c1-3 [WEHI-1214737, Apomorphine hydrochloride hemihydrate] |  |  | % Inhibition Pilot ([1]; Batch Reference=01): 62.755%; % Inhibition Confirmation ([2]; Batch Reference=01): 72.2885%
NCCNCCNCCNCCN [WEHI-1217021, Tetraethylenepentamine pentahydrochloride] | 96.2% | 96.9% | 
COC(=O)C1=C(C)NC(C)=C(C(=O)OC)C1c1ccccc1[N+](=O)[O-] [WEHI-0104145, Nifedipine] |  |  | inhibition at 20 µM ([1]; Batch Reference=02): 55.3%; inhibition at 20 µM ([1]; Batch Reference=03): 57.3%; inhibition at 10 µM ([2]; Batch Reference=02): 81.1%; inhibition at 10 µM ([2]; Batch Reference=03): 75.7%
NC(Cc1cc(O)c(O)cc1O)C(=O)O (racemic) [WEHI-1215200, 6-Hydroxy-DL-DOPA] | 69.7% | 80.7% | 
O=C(O)Cc1cccc(OCCCN(Cc2cccc(C(F)(F)F)c2Cl)CC(c2ccccc2)c2ccccc2)c1 [WEHI-1216231, GW 3965 hydrochloride] | 57.8% | 51.1% | 
CN1CCc2cc(O)cc3c2[C@H]1Cc1ccc(O)c(O)c1-3 [WEHI-1215043, R(-)-2,10,11-Trihydroxyaporphine hybrobromide] | 62.6% | 84.7% | 
O=C(Nc1cccc2c(=O)cc(C(=O)O)oc12)c1ccc(OCc2ccccc2)cc1 [Compound 15, 8-(4-(Benzyloxy)benzamido)-4-oxo-4H-chromene-2-carboxylic acid] |  |  | IC50 [3]: > 50 µM; Rh5 inhibitory activity in the AlphaScreen assay [3]: No activity
CCOC(=O)c1cc(=O)c2cccc(NC(=O)c3ccc(OCCc4ccccc4)cc3)c2o1 [Compound 12, Ethyl 4-oxo-8-(4-phenethoxybenzamido)-4H-chromene-2-carboxylate] |  |  | IC50 [3]: > 50 µM
CC(=O)N1CCN(c2ccc(OC[C@@H]3CO[C@@](Cn4ccnc4)(c4ccc(Cl)cc4Cl)O3)cc2)CC1 (racemic) [WEHI-1215227, Ketoconazole] |  |  | inhibition at 20 µM ([1]; Batch Reference=02): 58.3%
CN(C)C(=O)CCSC(SCCC(=O)O)c1cccc(/C=C/c2ccc3ccc(Cl)cc3n2)c1 (stereo not shown) [MK 571, reference compound] |  |  | Rh5 inhibitory activity in the AlphaScreen assay [3]: did not show Rh5 inhibitory activity
CN1CCc2cccc3c2[C@H]1Cc1ccc(O)c(O)c1-3 [R(-)-apomorphine, reference compound] |  |  | Rh5 inhibitory activity in the AlphaScreen assay [3]: not active
CC[N+](C)(CC)CCC[n+]1c(-c2ccccc2)c2cc(N)ccc2c2ccc(N)cc21 [WEHI-1216760, Propidium iodide] | 55.7% | 77% | 
CC#C[C@]1(O)CC[C@H]2[C@@H]3CCC4=CC(=O)CCC4=C3[C@@H](c3ccc(N(C)C)cc3)C[C@@]21C [WEHI-1215337, Mifepristone] | 75.3% | 91.7% | inhibition at 20 µM ([1]; Batch Reference=03): 76.6%; inhibition at 10 µM ([2]; Batch Reference=03): 96.5%
CCOC(=O)c1cc(=O)c2cccc(NC(=O)c3ccc(OC)cc3)c2o1 [Compound 20, Ethyl 8-(4-methoxybenzamido)-4-oxo-4H-chromene-2-carboxylate] |  |  | IC50 [3]: > 50 µM
CCCN1CCc2cccc3c2[C@H]1Cc1ccc(O)c(O)c1-3 [R(-)-propylnorapomorphine, reference compound] |  |  | Rh5 inhibitory activity in the AlphaScreen assay [3]: not active
CN1CCc2cccc3c2[C@H]1Cc1ccc(O)c(O)c1-3 [WEHI-1217165, R(-) Apomorphine hydrochloride hemihydrate] |  |  | % Inhibition Pilot ([1]; Batch Reference=01): 61.89%; % Inhibition Confirmation ([2]; Batch Reference=01): 62.575%
CCOC(=O)c1cc(=O)c2cccc(NC(=O)c3ccc(OCCCCc4ccccc4)cc3)c2o1 [Compound 14, Ethyl 4-oxo-8-(4-(4-phenylbutoxy)benzamido)-4H-chromene-2-carboxylate] |  |  | IC50 [3]: > 50 µM
COCCCOc1ccnc(C[S+]([O-])c2nc3ccccc3[nH]2)c1C (stereo not shown) [rabeprazole] | 59.6% | 68% | 
COCCCOc1ccnc(C[S+]([O-])c2nc3ccccc3[nH]2)c1C (stereo not shown) [rabeprazole, reference compound] |  |  | Rh5 inhibitory activity in the AlphaScreen assay [3]: not active
CCCN1CCc2cccc3c2[C@H]1Cc1ccc(O)c(O)c1-3 [WEHI-1215034, R(-)-Propylnorapomorphine hydrochloride] | 83% | 84.9% | 
CN1CCc2cccc3c2[C@H]1Cc1ccc(O)c(O)c1-3 [WEHI-1216442, (R)-(-)-Apomorphine hydrochloride] | 70.8% | 76.5% | 
Br.CN1CCc2cc(O)cc3c2[C@H]1Cc1ccc(O)c(O)c1-3 [R(-)-2,10,11-trihydroxyaporphine, reference compound] |  |  | Rh5 inhibitory activity in the AlphaScreen assay [3]: not active
CCCN1CCc2cc(O)cc3c2[C@H]1Cc1ccc(O)c(O)c1-3 [WEHI-1215052, R(-)-2,10,11-Trihydroxy-N-propylnoraporphine hydrobromide] | 69.8% | 87.2% | 
C[n+]1cc2c3c(ccc2c2ccc4cc5c(cc4c21)OCO5)OCO3 [WEHI-1215580, Sanguinarine chloride] | 70.3% | 99% | 
